Test results as given in US11077115B2, “Rorgamma modulators and uses thereof” (Genfit, priority 2017, dated 2021).
Counter-ions that a name gives are not always drawn.

SMILES | melting point [°C]
Cc1ccc(C(NC(=O)Cc2ccc(N3CCS(=O)(=O)CC3)cc2C)c2ccc(C)o2)c(N2CCCCC2)c1 (centres unmarked) (as salt: HCl) [Cpd. 18, 2-[4-(1,1-dioxo-1-thiomorpholin-4-yl)-2-methylphenyl]-N-{[4-methyl-2-(piperidin-1-yl)phenyl](5-methylfuran-2-yl)methyl}acetamide] | 96
Cc1ccc(C(NC(=O)Cc2ccc(N3CCS(=O)(=O)CC3)cc2C)c2ccc(C)o2)c(C)c1 (centres unmarked) (as salt: HCl) [Cpd. 19, N-[(2,4-dimethylphenyl)(5-methylfuran-2-yl)methyl]-2-[4-(1,1-dioxo-1-thiomorpholin-4-yl)-2-methylphenyl]acetamide] | 178
Cc1ccc(C(NC(=O)Cc2cnc(N3CCS(=O)(=O)CC3)nc2)c2ccc(C)o2)c(N2CCCCC2)c1 (centres unmarked) (as salt: HCl) [Cpd. 20, 2-[2-(1,1-dioxo-1-thiomorpholin-4-yl)pyrimidin-5-yl]-N-{[4-methyl-2-(piperidin-1-yl)phenyl](5-methylfuran-2-yl)methyl}acetamide] | 91
Cc1ccc(C(NC(=O)Cc2ccc(N3CCS(=O)(=O)CC3)cc2C)c2ccc(C)o2)c(Br)c1 (centres unmarked) (as salt: HCl) [Cpd. 21, N-[(2-bromo-4-methylphenyl)(5-methylfuran-2-yl)methyl]-2-[4-(1,1-dioxo-1-thiomorpholin-4-yl)-2-methylphenyl]acetamide] | 173
Cc1ccc(C(NC(=O)Cc2ccc(N3CCS(=O)(=O)CC3)cc2)c2ccccc2)c(N2CC3CC3C2)c1 (centres unmarked) (as salt: HCl) [Cpd. 22, N-[(2-{3-azabicyclo[3.1.0]hexan-3-yl}-4-methylphenyl)(phenyl)methyl]-2-[4-(1,1-dioxo-1-thiomorpholin-4-yl)phenyl]acetamide] | 104
Cc1ccc(C(NC(=O)Cc2ccc(N3CCS(=O)(=O)CC3)c(C)c2)c2ccccc2)c(N2CC3CC3C2)c1 (centres unmarked) (as salt: HCl) [Cpd. 23, N-[(2-{3-azabicyclo[3.1.0]hexan-3-yl}-4-methylphenyl)(phenyl)methyl]-2-[4-(1,1-dioxo-1-thiomorpholin-4-yl)-3-methylphenyl]acetamide] | 109
Cc1ccc(C(NC(=O)Cc2ccc(N3CCS(=O)(=O)CC3)cc2)c2ccc(C)o2)c(C(F)(F)F)c1 (centres unmarked) (as salt: HCl) [Cpd. 24, 2-[4-(1,1-dioxo-1-thiomorpholin-4-yl)phenyl]-N-{[4-methyl-2-(trifluoromethyl)phenyl](5-methylfuran-2-yl)methyl}acetamide] | 90
Cc1ccc(C(NC(=O)Cc2ccc(N3CCOCC3)nc2)c2ccc(C)o2)c(N2CCCCC2)c1 (centres unmarked) (as salt: HCl) [Cpd. 25, N-{[4-methyl-2-(piperidin-1-yl)phenyl](5-methylfuran-2-yl)methyl}-2-[6-(morpholin-4-yl)pyridin-3-yl]acetamide] | 61
Cc1ccc(C(NC(=O)Cc2cnc(N3CCOCC3)nc2)c2ccc(C)o2)c(N2CCCCC2)c1 (centres unmarked) (as salt: HCl) [Cpd. 26, N-{[4-methyl-2-(piperidin-1-yl)phenyl](5-methylfuran-2-yl)methyl}-2-[2-(morpholin-4-yl)pyrimidin-5-yl]acetamide] | 69
Cc1ccc(C(NC(=O)Cc2ccc(N3CCS(=O)(=O)CC3)nc2)c2ccc(C)o2)c(N2CCCCC2)c1 (centres unmarked) (as salt: HCl) [Cpd. 27, 2-[6-(1,1-dioxo-1-thiomorpholin-4-yl)pyridin-3-yl]-N-{[4-methyl-2-(piperidin-1-yl)phenyl](5-methylfuran-2-yl)methyl}acetamide] | 102
COc1cc(CC(=O)NC(c2ccc(C)o2)c2ccc(C)cc2N2CCCCC2)ccc1N1CCS(=O)(=O)CC1 (centres unmarked) (as salt: HCl) [Cpd. 29, 2-[4-(1,1-dioxo-1-thiomorpholin-4-yl)-3-methoxyphenyl]-N-{[4-methyl-2-(piperidin-1-yl)phenyl](5-methylfuran-2-yl)methyl}acetamide] | 90
COc1ccc(CC(=O)NC(c2ccc(C)o2)c2ccc(C)cc2N2CCCCC2)cc1N1CCS(=O)(=O)CC1 (centres unmarked) (as salt: HCl) [Cpd. 30, 2-[3-(1,1-dioxo-1-thiomorpholin-4-yl)-4-methoxyphenyl]-N-{[4-methyl-2-(piperidin-1-yl)phenyl](5-methylfuran-2-yl)methyl}acetamide] | 88
Cc1ccc(C(NC(=O)C2(c3ccc(N4CCS(=O)(=O)CC4)cc3)CC2)c2ccc(C)o2)c(C)c1 (centres unmarked) (as salt: HCl) [Cpd. 31, N-[(2,4-dimethylphenyl)(5-methylfuran-2-yl)methyl]-1-[4-(1,1-dioxo-1-thiomorpholin-4-yl)phenyl]cyclopropane-1-carboxamide] | 75
Cc1ccc(C(NC(=O)C2(c3ccc(N4CCS(=O)(=O)CC4)cc3)CC2)c2ccc(C)o2)c(N2CCCCC2)c1 (centres unmarked) (as salt: HCl) [Cpd. 32, 1-[4-(1,1-dioxo-1-thiomorpholin-4-yl)phenyl]-N-{[4-methyl-2-(piperidin-1-yl)phenyl](5-methylfuran-2-yl)methyl}cyclopropane-1-carboxamide] | 98
Cc1ccc(C(NC(=O)Cc2cnc(N3CCS(=O)(=O)CC3)nc2)c2ccc(C)o2)c(C(F)(F)F)c1 (centres unmarked) (as salt: HCl) [Cpd. 33, 2-[2-(1,1-dioxo-1-thiomorpholin-4-yl)pyrimidin-5-yl]-N-{[4-methyl-2-(trifluoromethyl)phenyl](5-methylfuran-2-yl)methyl}acetamide] | 224
Cc1ccc(C(NC(=O)Cc2cnc(N3CCS(=O)(=O)CC3)nc2)c2ccc(C)o2)c(Br)c1 (centres unmarked) (as salt: HCl) [Cpd. 34, N-[(2-bromo-4-methylphenyl)(5-methylfuran-2-yl)methyl]-2-[2-(1,1-dioxo-1-thiomorpholin-4-yl)pyrimidin-5-yl]acetamide] | 199
Cc1ccc(C(NC(=O)Cc2cnc(N3CCS(=O)(=O)CC3)nc2)c2ccc(C)o2)c(N2CC3CC3C2)c1 (centres unmarked) (as salt: HCl) [Cpd. 36, N-[(2-{3-azabicyclo[3.1.0]hexan-3-yl}-4-methylphenyl)(5-methylfuran-2-yl)methyl]-2-[2-(1,1-dioxo-1-thiomorpholin-4-yl)pyrimidin-5-yl]acetamide] | 105
Cc1ccc(C(NC(=O)C2(c3ccc(N4CCS(=O)(=O)CC4)c(Br)c3)CC2)c2ccc(C)o2)c(N2CCCCC2)c1 (centres unmarked) (as salt: HCl) [Cpd. 37, 1-[3-bromo-4-(1,1-dioxo-1-thiomorpholin-4-yl)phenyl]-N-{[4-methyl-2-(piperidin-1-yl)phenyl](5-methylfuran-2-yl)methyl}cyclopropane-1-carboxamide] | 106
Cc1ccc(C(NC(=O)Cc2cnc(N3CCS(=O)(=O)CC3)nc2C)c2ccc(C)o2)c(N2CCCCC2)c1 (centres unmarked) (as salt: HCl) [Cpd. 38, 2-[2-(1,1-dioxo-1-thiomorpholin-4-yl)-4-methylpyrimidin-5-yl]-N-{[4-methyl-2-(piperidin-1-yl)phenyl](5-methylfuran-2-yl)methyl}acetamide] | 99
Cc1ccc(C(NC(=O)Cc2ccc(O)c(N3CCS(=O)(=O)CC3)c2)c2ccc(C)o2)c(N2CCCCC2)c1 (centres unmarked) (as salt: HCl) [Cpd. 39, 2-[3-(1,1-dioxo-1-thiomorpholin-4-yl)-4-hydroxyphenyl]-N-{[4-methyl-2-(piperidin-1-yl)phenyl](5-methylfuran-2-yl)methyl}acetamide] | 118
